{"source": "patent US20240139142A1", "about": "“METHOD FOR PREVENTING OR TREATING LIVER DISEASE” (priority 2022, published 2024)", "key": {"[1]": {"tested_on": "liver hepatocellular carcinoma cell line SNU-449", "experiment": "MTS analysis, growth inhibition (GI50)", "assay_type": "cell-based"}, "[2]": {"tested_on": "liver hepatocellular carcinoma cell line Mahlavu", "experiment": "MTS analysis, growth inhibition (GI50)", "assay_type": "cell-based", "conditions": "read-out: GI50, Mahlavu liver hepatocellular carcinoma cell line"}, "[3]": {"tested_on": "SNU-449 liver hepatocellular carcinoma cell line", "experiment": "Western blot of apoptosis markers (cleaved caspase 8, cleaved PARP)", "assay_type": "cell-based", "conditions": "0.3 μM, 0, 24, 48 and 72 hours", "experimental": "SNU-449 liver hepatocellular carcinoma cell line was treated by 0.3 μM isothiocyanate structural modified compounds P1130 and PCH1152, and natural isothiocyanate compound PEITC, and the control group was treated by DSMO. After extracting the proteins in the cells at different time points, such as 0, 24, 48 and 72 hours, analysis and comparison were performed by using western blot. […] The results represent that the two structural modified compounds described above effectively promoted the apoptosis of the liver hepatocellular carcinoma cells (FIG. 1)."}, "[4]": {"tested_on": "Mahlavu liver hepatocellular carcinoma cell line", "experiment": "Expression of ABCC2, Twist and Mcl-1 after treatment", "assay_type": "cell-based", "conditions": "2.5 μM, 64 hours", "description": "(§1) The process of trans-differentiating epithelial cells into motile mesenchymal cells is called epithelial-mesenchymal transition (EMT). EMT is indispensable in development, wound healing and stem cell behavior, and may induce fibrosis and carcinogenesis pathologically. In addition, EMT plays an important role in liver fibrosis, liver cirrhosis and liver hepatocellular carcinoma. […] Moreover, EMT may increase the anti-apoptosis effect, which will result in the development of drug resistance in cancer treatment, and induce the development of stemness of the cancer cells, as well as increase the number of cancer stem cells. The cancer stem cell is one of the important factors in the progression, recurrence, metastasis and drug resistance of the cancer. There is an evidence that in the samples of the liver hepatocellular carcinoma patients with poor prognosis, the overexpressions of Twist and Snail were observed. […] The results above represent that isothiocyanate structural modified compound of the present disclosure may prevent liver carcinogenesis and the growth, invasion, metastasis, progression and recurrence of liver hepatocellular carcinoma via inhibiting epithelial-mesenchymal transition, anti-apoptosis and/or inhibiting drug resistance."}, "[5]": {"tested_on": "SNU-449 liver hepatocellular carcinoma cell line", "experiment": "Expression of ABCC2, Twist and Mcl-1 after treatment", "assay_type": "cell-based", "conditions": "2.5 μM, 64 hours", "description": "as §1"}, "[6]": {"tested_on": "liver hepatocellular carcinoma cell line SNU-449", "experiment": "MTS assay cell growth, selectivity test", "assay_type": "cell-based"}, "[7]": {"tested_on": "human normal liver cell line THLE-2", "experiment": "MTS assay cell growth, selectivity test", "assay_type": "cell-based", "description": "Preferable small molecule anticancer drugs must have higher selectivity to cancer cells, thereby reducing the toxicity and side effects in the normal cells and the dosage being taken. The selectivity of isothiocyanate structural modified compound of the present disclosure to liver hepatocellular carcinoma cells was examined by using human normal liver cell line THLE-2 and liver hepatocellular carcinoma cell line SNU-449. After treating liver hepatocellular carcinoma cell line and normal liver cell line by isothiocyanate structural modified compounds P1130 or PCH1152, the cell growth was evaluated by MTS assay."}, "[8]": {"tested_on": "SNU-449 liver hepatocellular carcinoma cell line", "experiment": "Western blot, apoptosis and ABCC2/Mcl-1/Twist expression", "assay_type": "cell-based", "conditions": "low concentration"}, "[9]": {"tested_on": "human normal liver cell line THLE-2", "experiment": "Western blot, apoptosis and ABCC2/Mcl-1/Twist expression", "assay_type": "cell-based", "conditions": "low concentration"}, "[10]": {"tested_on": "Mahlavu liver hepatocellular carcinoma cell line subcutaneous tumor", "experiment": "Mouse xenograft model, oral PCH1152", "assay_type": "in vivo, nude mice", "conditions": "0.6 mg/mouse/day orally", "experimental": "Seven days after subcutaneously injecting 1×10^6 Mahlavu liver hepatocellular carcinoma cell line into nude mice, PCH1152 (0.6 mg/mouse/day) began to be orally administered to the mice. After continuously administrating the drug orally for 45 days, the mice were sacrificed and their subcutaneous tumor were taken and analyzed."}, "[11]": {"tested_on": "Antimycin A-induced ROS in LX-2 cells", "experiment": "Removal of Antimycin A-induced ROS, DHE fluorescence", "assay_type": "cell-based", "conditions": "2.5 μM PCH1152, 24 hours", "description": "ROS was examined by DHE fluorescence, and the difference between each group was compared by Tukey's Multiple Comparison Test."}, "[12]": {"tested_on": "Hepatitis B virus-induced ROS in Huh-7 cells", "experiment": "Removal of HBV-induced ROS, DHE fluorescence", "assay_type": "cell-based, human", "conditions": "Huh-7 transfected with pGEM C12, 5 μM PCH1152, 10 μM NAC", "experimental": "To examine the effect of PCH1152, NAC or the combination thereof on removing HBV-induced ROS, the Huh-7 cells were remained untreated, or treated with 5 μM PCH1152, 10 μM NAC or 5 μM PCH 1152 plus 10 μM NAC. The ROS was examined by DHE fluorescence, and the difference between each group was compared by Tukey's Multiple Comparison Test."}, "[13]": {"tested_on": "liver tumor in Hepatitis B virus (HBV) transgenic mouse", "assay_type": "in vivo", "experimental": "To examine the incidence rate of mouse liver tumor under long-term PCH1152 administration, PCH1152 was added into the drinking water of the mice when the mice were three-month-old, and the drinking water was replaced every 7 to 14 days. The termination of the experiment was set at 19 months, and the blood of the mice started to be collected every 2 to 3 months when the mice were 9-month-old, and the ALT values of the serum were measured. When the ALT of the serum were higher than 150 U/L twice in a row, the mice were sacrificed and the developments of the liver tumors thereof were observed."}, "[14]": {"assay_type": "physicochemical", "conditions": "after 16 days"}, "[15]": {"tested_on": "hepatic lipid accumulation and fibrosis in HBV transgenic mouse liver", "experiment": "Oil Red and Sirius Red staining of liver tissue", "assay_type": "in vivo", "conditions": "treated mice without liver hepatocellular carcinoma vs control group"}, "[16]": {"tested_on": "P62 and LC3B in HBV transgenic mouse liver tissue", "experiment": "Autophagy markers in liver tissue, western blot", "assay_type": "in vivo", "experimental": "The liver tissues of the mice with or without liver hepatocellular carcinoma in the example 7 were analyzed by western blot (FIG. 8A), and quantitative analysis was performed via Image J software (FIG. 8B). P62 protein accumulated in the cells when the autophagy was forbidden, and it was degraded when the autophagy started-up. Therefore, P62 protein may be a biomarker of autophagy. […] Moreover, LC3B protein is the subunit of the microtubule-related protein, which has different protein isomers. After the autophagy being started, LC3B I isomer will be transformed into LC3B II isomer. […] The results above indicate that PCH1152 may enhance autophagy, i.e. may inhibit abnormal “anti-autophagy” effect, thereby preventing the development of liver hepatocellular carcinoma. **p<0.01; ***p<0.001; unpaired t-test."}, "[17]": {"tested_on": "liver hepatocellular carcinoma cell line with Nexavar drug resistance", "experiment": "Protein expression and apoptosis in drug-resistant cell line", "assay_type": "cell-based", "description": "WT: wild-type liver hepatocellular carcinoma cell line. R: Nexavar-drug resistance-liver hepatocellular carcinoma cell line.\nAfter treating liver hepatocellular carcinoma cell line with Nexavar drug resistance by PCH1130 or PCH1152, the expressions of molecules such as USP22, ABCC1, ABCC2 and Twist in liver hepatocellular carcinoma may be decreased, and the expressions of cleaved Caspase-8 and PARP may be increased, which induced the apoptosis of liver hepatocellular carcinoma cells."}, "[18]": {"experiment": "Safety test, median lethal dose (LD50), intravenous injection", "assay_type": "in vivo", "conditions": "in vivo, mouse", "experimental": "(§2) The mouse xenograft model of liver hepatocellular carcinoma was administered with different concentrations of PCH1152 or P1130 via intravenous injection, and the median lethal dose (LD50) was calculated by the number of death and dosage."}, "[19]": {"tested_on": "mouse xenograft model of liver hepatocellular carcinoma", "experiment": "Safety test, median lethal dose (LD50), intravenous injection", "assay_type": "in vivo", "experimental": "as §2"}, "[20]": {"conditions": "long-term treatment in drinking water"}}, "data": [{"compound": "Oc1ccc(CCN=C=S)cc1", "note": "[PCH1152]", "values": [{"measurement": "GI50", "setting": "[1]; Homo sapiens, SNU-449, read-out: GI50, SNU-449 liver hepatocellular carcinoma cell line", "result": 890, "unit": "nM"}, {"measurement": "increase of the ability of inhibiting the growth of the liver hepatocellular carcinoma cell line", "setting": "[1]; compared to natural isothiocyanate compounds BITC or PEITC", "result": 12, "unit": "times"}, {"measurement": "GI50", "setting": "[2]", "result": 1540, "unit": "nM"}, {"measurement": "expression levels of cleaved caspase 8 and cleaved PARP", "setting": "[3]", "result": "significantly increased"}, {"measurement": "expressions of ABCC2, Twist and Mcl-1", "setting": "[4]", "result": "inhibition"}, {"measurement": "expressions of ABCC2, Twist and Mcl-1", "setting": "[5]", "result": "inhibition"}, {"measurement": "cell viability of liver hepatocellular carcinoma cell line", "setting": "[6]; MTS assay, SNU-449", "result": "substantially decreased"}, {"measurement": "selectivity between liver hepatocellular carcinoma cell and normal liver cell", "setting": "[6]; SNU-449 vs THLE-2, MTS assay", "result": "better cell growth inhibition selectivity"}, {"measurement": "effect on cell viability of human normal liver cell line", "setting": "[7]", "result": "not significant"}, {"measurement": "apoptosis of liver hepatocellular carcinoma cell line", "setting": "[8]", "result": "promote apoptosis"}, {"measurement": "expressions of ABCC2, Mcl-1 and Twist", "setting": "[8]", "result": "inhibit the expressions"}, {"measurement": "apoptosis promotion and inhibition of ABCC2, Mcl-1, Twist in human normal liver cell line", "setting": "[9]", "result": "no such effect"}, {"measurement": "death of mice during the experiment", "setting": "[10]; 45 days", "result": "No mouse dead"}, {"measurement": "effect on daily food intake", "setting": "[10]; 45 days", "result": "did not have any significant effect"}, {"measurement": "effect on mouse weight", "setting": "[10]; 45 days", "result": "did not have any significant effect"}, {"measurement": "value of ALT in the mouse", "setting": "[10]; 45 days", "result": "decrease"}, {"measurement": "subcutaneous tumor volume", "setting": "[10]; 45 days, vs control group", "result": "significantly smaller"}, {"measurement": "expressions of ABCC1, USP22 and Mcl-1 in subcutaneous tumor", "setting": "[10]; western blot", "result": "significant lower"}, {"measurement": "Antimycin A-induced ROS increasement", "setting": "[11]", "result": "significantly reduce"}, {"measurement": "HBV-induced ROS increasement", "setting": "[12]", "result": "significantly reduce"}, {"measurement": "reduction of the incidence rate of liver tumor", "setting": "[13]; compared to control group", "result": "more than 30%"}, {"measurement": "age at which serum ALT increased to over 150 U/L in 50% of the mice", "setting": "[13]; control group 19.5-month old", "result": 21, "unit": "month old"}, {"measurement": "volume of the liver tumor", "setting": "[13]; long-term treatment", "result": "significantly decrease"}, {"measurement": "weight of the liver tumor", "setting": "[13]; long-term treatment", "result": "significantly decrease"}, {"measurement": "impact on daily food intake", "setting": "[13]; [20]", "result": "did not have any significant impact"}, {"measurement": "impact on daily water intake", "setting": "[13]; [20]", "result": "did not have any significant impact"}, {"measurement": "impact on weight", "setting": "[13]; [20]", "result": "did not have any significant impact"}, {"measurement": "structural stability in the drinking water of the mice", "setting": "[14]", "result": "higher than 98%"}, {"measurement": "region of the lipid accumulation in liver tissue", "setting": "[15]; Oil Red", "result": "reduced significantly"}, {"measurement": "region of fibrosis in liver tissue", "setting": "[15]; Sirius Red", "result": "reduced significantly"}, {"measurement": "effect on autophagy", "setting": "[16]; liver tissue", "result": "significantly enhance autophagy"}, {"measurement": "P62 protein in liver tissue (ratio of P62 and Hsc70)", "setting": "[16]; treated mouse without carcinoma vs mouse developing carcinoma, western blot", "result": "significantly lower"}, {"measurement": "ratio of LC3B II and LC3B I", "setting": "[16]; vs control group, western blot", "result": "higher"}, {"measurement": "effect on drug resistance in liver hepatocellular carcinoma", "setting": "[17]", "result": "reversing the drug resistance"}, {"measurement": "expressions of USP22, ABCC1, ABCC2 and Twist", "setting": "[17]", "result": "decreased"}, {"measurement": "expressions of cleaved Caspase-8 and PARP", "setting": "[17]", "result": "increased"}, {"measurement": "LD50", "setting": "[18]", "result": "30 to 100", "unit": "mg/kg"}, {"measurement": "toxicity relative to existing anticancer drug, e.g. Taxotere", "setting": "[19]", "result": "comparable"}]}]}
